From patent publication US4228162A (priority 1979, dated 1980)
In brackets after ≈: the same amount, converted by molar mass. Like-named read-outs stand apart in the source and are kept apart here.

Key:
[1] = Description: The samples were prepared using USP grade aspirin, which was dried at 110° before use. […] Spectrum b was taken after the sample (containing 10% water) was stored at 70° C. for 96 hours.
[2] = cited from earlier work
gastrointestinal tract = settings: cited from earlier work
[3] = Arrhenius prediction of aspirin degradation and shelf life; assay type: physicochemical; settings: 1.00 M aspirin in dimethyl isosorbide
Description: The rate constants determined at various temperatures were used to predict the aspirin degradation at room (25° C.) and refrigeration (5° C.) temperatures using the Arrhenius equation:
log k=log A-Ea /2.303RT (3)
where k is the rate constant at temperature T,A, a constant, R, the gas constant, and Ea, the activation energy of the reaction. A plot of log k versus 1/T should yield a straight line with the slope equal to -Ea /2.303R. For the same reaction, Ea is a constant. From the plot, the rate constants at 25° and 5° can also be calculated. These constants can then be used for the prediction of the shelf life (time for 10% degradation) of the aspirin formulations at room and refrigeration temperatures.
From these values, the shelf-life (time for 10% degradation) of formulation A were predicted to be 230 days at 25° C., and 62.5 months at 5° C.

[4] = Solubility of aspirin in propylene glycol, polyethylene glycol-400 and dimethyl isosorbide; assay type: physicochemical; settings: organic solvent or mixture
Description: The bottle was constantly shaken at room temperature for 24 hours. The solution was then filtered for analysis. The determination of aspirin contents in the solubility samples was carried out using a fluorometric technique, in which the aspirin was completely hydrolyzed into salicylic acid, and the fluorescence of salicylic acid was then measured. The concentration of salicylic acid in the samples was determined based on a fluorescence calibration curve of known concentrations of salicylic acid in the range of 5×10^-7 M to 5×10^-6 M. The concentration of salicylic acid so determined was then converted to the concentration of aspirin. The solubility of aspirin in various solvents is expressed in mg/ml. The samples were treated as follows: […] After 30 minutes, when the hydrolysis was complete, 0.5 ml of a 1 N HCl was added to the flask to neutralize the excess sodium hydroxide. The solution was then diluted with a pH 7 phosphate buffer to 25 ml. For fluorescence measurement, 1, 2, 3, and 4 μl of the diluted solution were transferred into different fluorescence cuvettes containing 2 ml of pH 7 buffer. The fluorescence measured from these solutions was then used to determine the aspirin content in the solvents.

[5] = assay type: physicochemical; settings: dimethyl isosorbide versus propylene glycol and polyethylene glycol-400
Text: Ideally, an anhydrous composition is used to prevent hydrolysis.

[6] = cited from earlier work; remark: listed apart in the source
[7] = Hydrolysis (stability) studies of aspirin formulations in dimethyl isosorbide; assay type: physicochemical
Description: No attempt of drying of the drug or the solvent was made prior to the experiment. 25 ml of each of the six formulations were placed in a screw capped bottle which was then kept in a temperature controlled water bath set at a designated temperature. Samples of each of the formulations were pipetted out at selected time intervals, and were immediately analyzed for salicylic acid content. The analysis of salicylic acid was carried out using the fluorometric method previously described. The samples were diluted 1000 times in a volumetric flask, a few μl's of the diluted samples were then transferred into a fluorescence cuvette containing 2 ml of pH 7 buffer for the fluorescence measurement. The hydrolysis studies were carried out at 40, 45, 50, 60 and 70° C. and at room temperature.
The rate constant of aspirin hydrolysis was determined according to the following equation: […]
where Co is the initial concentration of aspirin, C, the concentration of aspirin at time t, and k, the rate constant. For practical purposes, the above equation may be converted to […]

Structure (SMILES): CC(=O)Oc1ccccc1C(=O)O [Aspirin, acetylsalicylic acid]
- aspirin degradation by nmr ([1]; 1 M aspirin in dimethyl isosorbide with 10% (v/v) water, 70° C., 96 hours): partially hydrolyzed into salicylic acid and acetic acid
- nmr spectral change ([1]; 1 M aspirin in dimethyl isosorbide, no water, heated at 70° for 24 hours): no detectable change was found in the nmr spectrum
- mode of decomposition in polyhydric alcohols (nmr) ([2]; apparently anhydrous polyhydric alcohols): occurs by transesterification of the acid with the polyhydric alcohol as well as by hydrolysis due to the presence of water
- hydrolysis kinetics ([2]; aqueous, Edward): follows first order kinetics and is subject to acid and base catalysis
- trans-esterification ([2]; polyethylene glycol-400, prolonged storage, Jun et al): undergoes trans-esterification with polyethylene glycol-400 to form salicylic acid and acetylated polyethylene glycol
- gastrointestinal bleeding (gastrointestinal tract; aspirin ingestion, users and patients with gastrointestinal lesions): severe gastrointestinal bleeding
- occult bleeding (gastrointestinal tract; orally in a liquid form or intravenously): produces no occult bleeding
- Time for 10% Degradation ([3]; 5° C.): 62.5 mos.
- Time for 10% Degradation ([3]; 25° C.): 230 days
- solubility at 24 h ([4]; dimethyl isosorbide): 280 mg/mL (≈ 1550 mM)
- solubility at 24 h ([4]; in polyethylene glycol-400, room temperature, 24 hours): 254 mg/mL (≈ 1410 mM)
- solubility at 24 h ([4]; in propylene glycol, room temperature, 24 hours): 160 mg/mL (≈ 888 mM)
- aspirin stability compared between solvents [5]: more stable in dimethyl isosorbide than in the other solvents
- Time for 10% Degradation ([6]; 5° C., 0.36 M aspirin in polyethylene glycol-400): 2.90 mos.
- Time for 10% Degradation ([6]; 5° C., 0.36 M aspirin in propylene glycol): 55.8 mos.
- Time for 10% Degradation ([6]; 25° C., 0.36 M aspirin in polyethylene glycol-400): 18.8 days
- Time for 10% Degradation ([6]; 25° C., 0.36 M aspirin in propylene glycol): 151.2 days
- cause of aspirin degradation (nmr) [7]: hydrolysis is the only cause for aspirin degradation in dimethyl isosorbide
- kinetic order of aspirin hydrolysis ([7]; 50° C., FIG. 3): follows second order kinetics
